Measured values published in patent US9988373B2, “Nitrogen-containing six-membered cyclic derivatives and pharmaceutical composition comprising the same” (SHIONOGI & CO., LTD., priority 2013, dated 2018).

Each compound was assayed against T1, human P2X7 receptor (Homo sapiens, UniProt Q99572, R270H) (assay: Evaluation of a human P2X7 receptor inhibitory activity (Yo-Pro uptake, BzATP stimulation, FLIPR TETRA)). Conditions: antagonistic activity for the human P2X7 receptor, 1321N1 cell transfected with the human P2X7 receptor gene, Yo-Pro fluorescence.
T1 construct: expressed in transfected cells
T1 sequence (Q99572 1-595 R270H): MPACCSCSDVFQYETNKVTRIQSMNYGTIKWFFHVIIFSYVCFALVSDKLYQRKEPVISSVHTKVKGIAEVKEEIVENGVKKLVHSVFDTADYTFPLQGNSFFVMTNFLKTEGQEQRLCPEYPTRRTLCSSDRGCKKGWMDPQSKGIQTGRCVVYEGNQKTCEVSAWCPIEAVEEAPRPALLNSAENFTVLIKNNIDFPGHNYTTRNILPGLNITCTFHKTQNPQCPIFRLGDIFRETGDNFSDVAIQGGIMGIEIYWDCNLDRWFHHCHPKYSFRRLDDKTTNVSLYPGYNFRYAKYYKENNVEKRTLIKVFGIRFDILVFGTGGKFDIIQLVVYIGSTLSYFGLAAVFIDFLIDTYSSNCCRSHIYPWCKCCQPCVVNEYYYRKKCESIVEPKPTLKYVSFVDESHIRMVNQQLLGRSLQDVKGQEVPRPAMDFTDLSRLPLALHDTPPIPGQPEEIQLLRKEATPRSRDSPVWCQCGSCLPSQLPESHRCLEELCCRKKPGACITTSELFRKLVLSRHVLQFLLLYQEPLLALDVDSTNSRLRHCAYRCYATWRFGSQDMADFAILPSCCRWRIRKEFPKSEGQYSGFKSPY
Format: cell-based
Experimental: Test Example 1 Evaluation of a Human P2X7 Receptor Inhibitory Activity
Stably expressing cell line (1321N1 cell transfected with the human P2X7 receptor gene (GenBank accession number NM_002562.5 including T606C and G952A SNP)) was used. The cells were seeded in a 384-well microtiter plate at a concentration of 8000 cells/well and cultured in the medium (10% fetal bovine serum, 25 mM HEPES, 1% penicillin and streptomycin in DMEM) for one day at 37° C. under 5% carbon dioxide atmosphere. After replacing with 20 μL of the HBSS buffer (20 mM HEPES. 55.6 mM D-glucose, 1×HBSS(−), pH 7.4-7.5), 15 μL of 17.3 μM Yo-Pro solution in the HBSS buffer was added. The plate was placed in high-throughput cellular screening system FLIPR TETRA (Molecullar Devices, LLC.) and 15 μL of 130 μM BzATP solution in the HBSS buffer was added. Measurement of fluorescence intensity by FLIPR TETRA was started. After eight minutes, 15 μL of DMSO solutions containing different concentrations of the compound of the present invention as prepared by dilution with the HBSS buffer were dispensed to each well through the built-in automatic dispenser, and the measurement of fluorescence intensity was continued for 20 minutes. The maximum fluorescence intensity without the compound of the present invention is calculated as 0% inhibition and the maximum fluorescence intensity when the reference compound was added is calculated as 100% inhibition. Changing values of fluorescence intensity by the compound of the present invention were calculated by difference between maximum and minimum fluorescence intensity for 20 minutes. Inhibition ratios (%) were calculated from the following equation:
[formula] IC50 was calculated using logistic approximation.

| IC50 [µM] | SMILES |
| --- | --- |
| 0.81 | O=c1ccn(Cc2ccc(F)cc2)c(-c2cccc(Cl)c2Cl)c1 [Compound I-020] |
| 0.19 | COc1cn(Cc2ccccc2)c(-c2ccc(Cl)cc2Cl)nc1=O [II-082] |
| 0.02 | COc1cn(Cc2cccc3ccccc23)c(-c2cccc(C(F)(F)F)c2Cl)nc1=O [II-055] |
| 0.11 | O=c1cnn(Cc2ccccc2)c(-c2cccc(C(F)(F)F)c2Cl)c1 [III-002] |
| 0.13 | COc1cn(Cc2ccccc2)c(-c2cccc(Cl)c2Cl)nc1=O [II-056] |
| 0.06 | O=c1nc(-c2cccc(C(F)(F)F)c2Cl)n(Cc2ccccc2)cc1OCC(F)(F)F [II-033] |
| 0.071 | COC(=O)Nc1cn(Cc2ccccc2)c(-c2cccc(C(F)(F)F)c2Cl)nc1=O [II-053] |

Same assay, conditions: antagonistic activity for the human P2X7 receptor, 1321N1 cell transfected with the human P2X7 receptor gene, Yo-Pro fluorescence, class symbols

| SMILES | IC50 [µM] |
| --- | --- |
| O=c1ccn(Cc2ccccc2CS(=O)(=O)c2ccccc2)c(-c2cccc(C(F)(F)F)c2Cl)c1 [Compound I-056] | 1 to 10 |
| CC(C)NC(=O)Nc1cccc(Cn2cc(Br)c(=O)cc2-c2cccc(C(F)(F)F)c2Cl)c1 [Compound I-012] | 0.5 to 1 |
| O=c1ccn(Cc2cccc(F)c2F)c(-c2cccc(C(F)(F)F)c2Cl)c1 [Compound I-062] | 0.5 to 1 |
| CC(C)NC(=O)Nc1cccc(Cn2ccc(=O)cc2-c2cccc(C(F)(F)F)c2Cl)c1 [Compound I-037] | 0.1 to 0.5 |
| O=c1ccn(Cc2ccc(Oc3ccccc3)cc2)c(-c2cccc(C(F)(F)F)c2Cl)c1 [Compound I-070] | 1 to 10 |
| O=c1ccn(Cc2c(F)cccc2F)c(-c2cccc(C(F)(F)F)c2Cl)c1 [Compound I-054] | 0.1 to 0.5 |
| COc1cccc(Cn2cc(Br)c(=O)cc2-c2cccc(C(F)(F)F)c2Cl)c1 [Compound I-009] | 0.1 to 0.5 |
| O=c1ccn(Cc2ccccc2F)c(-c2cccc(C(F)(F)F)c2Cl)c1 [Compound I-022] | 0.1 to 0.5 |
| O=c1cc(-c2cccc(C(F)(F)F)c2Cl)n(Cc2ccccc2)cc1Br [Compound I-008] | 0.1 to 0.5 |
| CS(=O)(=O)c1ccc(Cn2ccc(=O)cc2-c2cccc(C(F)(F)F)c2Cl)cc1 [Compound I-060] | 1 to 10 |
| O=c1ccn(Cc2ccc(F)cc2)c(-c2cccc(C(F)(F)F)c2Cl)c1 [Compound I-017] | 0.5 to 1 |
| COc1cccc(Cn2ccc(=O)cc2-c2cccc(C(F)(F)F)c2Cl)c1 [Compound I-057] | 0.1 to 0.5 |
| N#Cc1cccc(Cn2ccc(=O)cc2-c2cccc(C(F)(F)F)c2Cl)c1 [Compound I-024] | 0.5 to 1 |
| Cc1ccccc1Cn1ccc(=O)cc1-c1cccc(Cl)c1Cl [Compound I-016] | 0.1 to 0.5 |
| O=c1ccn(Cc2cccc(Oc3ccccc3)c2)c(-c2cccc(C(F)(F)F)c2Cl)c1 [Compound I-036] | 0.5 to 1 |
| Cc1ccccc1Cn1ccc(=O)cc1-c1cccc(C(F)(F)F)c1Cl [Compound I-018] | 0.05 to 0.1 |
| O=c1ccn(Cc2ccc(OCc3ccccc3)cc2)c(-c2cccc(C(F)(F)F)c2Cl)c1 [Compound I-064] | 1 to 10 |
| O=c1cc(-c2cccc(C(F)(F)F)c2Cl)n(Cc2cccc(F)c2)cc1Br [Compound I-010] | 0.1 to 0.5 |
| O=c1ccn(Cc2cccc(Cl)c2)c(-c2cccc(C(F)(F)F)c2Cl)c1 [Compound I-055] | 0.1 to 0.5 |
| Cc1cc(Cn2ccc(=O)cc2-c2cccc(C(F)(F)F)c2Cl)on1 [Compound I-068] | 1 to 10 |
| CC(=O)c1cn(Cc2cccc(C#N)c2)c(-c2cccc(C(F)(F)F)c2Cl)cc1=O [Compound I-005] | 0.5 to 1 |
| O=c1ccn(Cc2ccccc2S(=O)(=O)N2CCOCC2)c(-c2cccc(C(F)(F)F)c2Cl)c1 [Compound I-026] | 1 to 10 |
| O=c1ccn(Cc2nc3ccccc3s2)c(-c2cccc(C(F)(F)F)c2Cl)c1 [Compound I-042] | 1 to 10 |
| O=c1ccn(Cc2cccc3cccnc23)c(-c2cccc(C(F)(F)F)c2Cl)c1 [Compound I-044] | 0.5 to 1 |
| CC(=O)c1cn(Cc2ccccc2)c(-c2cccc(C(F)(F)F)c2Cl)cc1=O [Compound I-014] | 0.1 to 0.5 |
| O=c1ccn(Cc2cccc(F)c2)c(-c2cccc(C(F)(F)F)c2Cl)c1 [Compound I-027] | 0.5 to 1 |

Second part, the compound after the results:

| IC50 [µM] | SMILES |
| --- | --- |
| < 0.05 | COc1cn(Cc2cccc3ncccc23)c(-c2cccc(C(F)(F)F)c2Cl)nc1=O [II-052] |
| 0.05 to 0.1 | COc1cn(Cc2ccccc2)c(-c2cccc(Cl)c2C(F)(F)F)nc1=O [II-083] |
| 0.1 to 0.5 | COc1cn(Cc2cccnc2C(F)(F)F)c(-c2cccc(C(F)(F)F)c2Cl)nc1=O [II-094] |
| 0.05 to 0.1 | COc1cn(Cc2cccc(CO)c2)c(-c2cccc(C(F)(F)F)c2Cl)nc1=O [II-019] |
| 1 to 10 | COc1cn(Cc2ccccc2)c(C2=CCSCC2)nc1=O [II-072] |
| < 0.05 | Cc1ccccc1Cn1cc(OCC(F)(F)F)c(=O)nc1-c1cccc(C(F)(F)F)c1Cl [II-089] |
| < 0.05 | COc1ccccc1Cn1cc(OC)c(=O)nc1-c1cccc(C(F)(F)F)c1Cl [II-087] |
| 1 to 10 | COc1cn(Cc2ccccc2C)c(-c2ccccc2)nc1=O [II-058] |
| 0.05 to 0.1 | N#CCNc1cn(Cc2ccccc2)c(-c2cccc(C(F)(F)F)c2Cl)nc1=O [II-043] |
| 0.05 to 0.1 | COc1cn(C(C)c2ccccc2)c(-c2cccc(C(F)(F)F)c2Cl)nc1=O (stereo not shown) [II-039] |
| 1 to 10 | COc1cn(Cc2ccccc2C)c(-c2cccc(F)c2)nc1=O [II-062] |
| < 0.05 | COc1cn(Cc2ccccc2CO)c(-c2cccc(C(F)(F)F)c2Cl)nc1=O [II-015] |
| 0.1 to 0.5 | COc1cn(Cc2ccccn2)c(-c2cccc(C(F)(F)F)c2Cl)nc1=O [II-018] |
| < 0.05 | CC(C#N)Oc1cn(Cc2ccccc2)c(-c2cccc(C(F)(F)F)c2Cl)nc1=O (stereo not shown) [II-041] |
| 0.5 to 1 | CN(C)CCOc1cn(Cc2ccccc2)c(-c2cccc(C(F)(F)F)c2Cl)nc1=O [II-028] |
| 1 to 10 | COc1cn(Cc2ccccc2C)c(-c2ccc(C(F)(F)F)cc2)nc1=O [II-066] |

| IC50 [µM] | SMILES |
| --- | --- |
| < 0.05 | N#CCn1cc(OCc2ccccc2)c(=O)nc1-c1cccc(C(F)(F)F)c1Cl [II-085] |
| 0.1 to 0.5 | COc1cn(Cc2cccc(C#N)c2)c(-c2cccc(C(F)(F)F)c2Cl)nc1=O [II-013] |
| 0.5 to 1 | COc1cn(Cc2ccccc2)c(-c2cccc(F)c2F)nc1=O [II-078] |
| 0.1 to 0.5 | COc1cn(Cc2ccccc2)c(-c2ccc(Cl)c(Cl)c2)nc1=O [II-084] |
| 1 to 10 | COc1cn(Cc2ccccc2)c(C2=C[C@H]3CC[C@@H]2C3)nc1=O [II-071] |
| < 0.05 | COc1cn(Cc2ccccc2OC(F)(F)F)c(-c2cccc(C(F)(F)F)c2Cl)nc1=O [II-097] |
| < 0.05 | O=c1nc(-c2cccc(C(F)(F)F)c2Cl)n(Cc2ccccc2)cc1OCc1ccccc1 [II-023] |
| 0.1 to 0.5 | COc1cn(Cc2cccc(C)c2)c(-c2cccc(C(F)(F)F)c2Cl)nc1=O [II-017] |
| 0.05 to 0.1 | COc1cn(Cc2cccc(F)c2)c(-c2cccc(C(F)(F)F)c2Cl)nc1=O [II-006] |
| 0.1 to 0.5 | O=c1nc(-c2cccc(C(F)(F)F)c2Cl)n(Cc2ccccc2)cc1C(F)(F)F [II-036] |
| 1 to 10 | COc1cn(Cc2ccccc2C)c(-c2ccc(Cl)cc2)nc1=O [II-060] |
| 0.1 to 0.5 | COc1cn(Cc2ccccc2C)c(-c2cccc(C(F)(F)F)c2)nc1=O [II-065] |
| 1 to 10 | COc1cn(Cc2ccccc2)c(C2=CCCCCC2)nc1=O [II-069] |
| < 0.05 | N#Cc1cn(Cc2ccccc2)c(-c2cccc(C(F)(F)F)c2Cl)nc1=O [II-037] |
| 1 to 10 | COc1cn(Cc2ccc(C#N)cc2)c(-c2cccc(C(F)(F)F)c2Cl)nc1=O [II-014] |
